Where a SMILES comes first, the peptide text is derived from it.
Assays:
[1] = tested on: CD4-gp120 complex formation; test: Competitive inhibition of 125I-CD4 binding to immobilized gp120; design: species or system HIV-1 (MN and LAI isolates); settings: 10-fold molar excess (0.5 μM) competitor, 50 nM 125I-CD4, MN and LAI gp120
Experimental: FIG. 5 is a graph showing competitive inhibition of ^125I-CD4 binding to gp120. […] Samples were incubated, and bound TSP1 was measured as in FIG. 2. A single data set of triplicate samples (η=3, error as SD) is shown.
(§1) Radiolabeling was performed with Na[^125I]
These observations support a role for salivary TSP1 as a direct inhibitor of HIV infectivity.

[2] = biological target: T1, CD4 (Homo sapiens, UniProt P01730); test: Solid phase binding of 125I-CD4 to immobilized TSP1 and TSP analog
T1 construct: CHO cell-expressed soluble CD4; host or cells: CHO cells
Experimental: FIG. 12 is a graph showing the binding of ^125I-CD4 to TSP1 and a TSP analog. Increasing concentrations of soluble ^125I-labeled CD4 (0.1μM -1.0 μM) were added to immobilized TSP1, CVSTCG polypeptide (SEQ. ID. No. 1). Samples were incubated and bound ^125I-labeled CD4 measured by solid-binding radio-amino assay, […].
as §1

[3] = tested on: HIV-1 isolate IIIB; test: HIV-1 infectivity assay, virus pre-incubated with TSP1 or saliva, p24 ELISA day 7; format: cell-based
Experimental: HIV-1 isolate IIIB was pre-incubated in the absence of TSP1, or with various concentrations of purified TSP1 for 1 hour at 37° C. Pre-incubated virus-TSP1 mixtures were added to target cells either directly (−), or first passed through 0.2 μm filters (+). Phorbol myrisate acetate (“PMA”) activated primary peripheral blood mononuclear cells (“PBMC”), SK23 (T-cell line) or U937 (promonocytic line) were inoculated with the multiplicities of infection (“moi”) indicated. After an additional 1 hour at 37° C., infected cells were washed, cultured for 7 days, and HIV-1 p24 antigen measured by ELISA. Inhibition is expressed for a single data set as percent of maximum p24 detected in the absence of TSP1.
PMA-stimulated primary PBMC were infected with 0.02 moi HIV/IIIB that had been pre-incubated with TSP1 alone, or with LIMPII fusion protein LFP75-155 alone or in the presence of TSP1, and filtered prior to incubation as in FIG. 7. TSP-mediated inhibition is expressed as percent decrease in p24 relative to maximum p24 detected in the absence of TSP 1. Data shown represent the average of two independent experiments (error as SD).
CD4+T lymphoblastoid (SK23, Jurkat) and promonocytic (U937) cell lines, or peripheral blood mononuclear cells (“PBMC”) obtained from HIV seronegative donors and activated with phytohemagglutinin (“PHA”, 2 μg/ml for 72 hours), were cultured in RPMI 1640, 5% fetal bovine serum (“FBS”, frozen/thawed and complement-inactivated 30 minutes at 56° C.), 100 U/ml penicillin and 100 μg/ml streptomycin (GIBCO/BRL, Grand Island, N.Y.). PBMC medium also contained 32 U/ml interleukin-2 (Sigma Chemical Co., St. Louis, Mo.). FBS samples were pre-screened to assure that levels of TSP were<10 μg/ml. Acute HIV infection was performed using HIV-1 isolate IIIB stock virus as previously described (Laurence et al., “Human Immunodeficiency Virus Infection of Helper T-Cell Clones: Early Proliferative Defects Despite Intact Antigen-Specific Recognition and Interleukin 4 Secretion,” J. Clin. Invest., 83:1843-1848 (1989); Laurence et al., “Human Immunodeficiency Virus Infection of Monocytes: Relationship to Fc-Gamma Receptors and Antibody-Dependent Viral Enhancement,” Immunology, 70:338-343 (I 990), which are hereby incorporated by reference). Briefly, 2.5×10^5 target cells were exposed to stock virus at a moi of either 0.02 or 0.15 for 2 hours at 37° C., washed once with PBS, and re-plated in tissue culture-treated microwells with 0.3 ml fresh culture medium. At 3-4 days post-inoculation, one half of culture supernatant from each well was replaced with fresh medium. HIV activity was determined after 7 days using an ELISA antigen capture assay for HIV-1 p24 (gag) core protein (Dupont Medical Products, Boston, Mass.) of Triton X-100 solubilized culture supernatants.
• 100 μl of HIV-1/IIIB inocula were mixed with 100 μl of various concentrations of whole saliva, salivary fluid fractions, or purified platelet TSP1 diluted in serum-free cell culture medium, and pre-incubated for 2 hours at 37° C. Then, 10-fold serial dilutions were added directly to target cell cultures for assay of infectivity. In some experiments, pre-incubated virus-saliva/TSP mixtures were filtered through 0.2 μm nitrocellulose syringe filters (Gelman Sciences, Ann Arbor, Mich.) prior to inoculation of target cells. Salivary TSP1 Depletion Experiments

[4] = tested on: monocytotropic strains of HIV-1, p13 and HA593; test: HIV-1 infectivity assay with monocytotropic patient isolates; format: cell-based; settings: 100 μg/ml TSP1, viral moi 0.8
[5] = tested on: CD4 surface expression; test: Cell surface expression of CD4 by flow cytometry; format: cell-based, human; settings: 100 μg/ml TSP1, 3 days; Jurkat, SK23, PHA-activated PBMC
Experimental: CD4 surface expression on HIV-1 infected or uninfected U937 cells was evaluated by indirect immunofluorescence flow cytometry using anti-CD4 mAb Leu3, as detailed elsewhere (Laurence et al., “Human Immunodeficiency Virus Infection of Helper T-Cell Clones: Early Proliferative Defects Despite Intact Antigen-Specific Recognition and Interleukin 4 Secretion,” J. Clin. Invest., 83:1843-1848 (1989), which is hereby incorporated by reference).
Another mechanism to explain TSP-mediated blockade to HIV infection would be a direct effect on target cells, whereby alterations in cell function would decreased the capacity to support productive infection. To address whether exogenous purified TSP1 induced down-modulation of the high affinity HIV receptor, CD4+ Jurkat and SK23 T-cell lines, as well as PHA-activated PBMC, were monitored for differences in CD4 surface expression after culture for 3 days in the absence or presence of 100 μg/ml TSP1. By flow cytometric analysis of cells stained with fluorescein-conjugated anti-CD4 IgG, no change in relative fluorescence intensity or percent CD4+cell was detected.

[6] = biological target: T2, RANTES (Homo sapiens, UniProt P13501); test: Solid phase binding of 125I-RANTES to immobilized TSP
T2 sequence (P13501 24-91): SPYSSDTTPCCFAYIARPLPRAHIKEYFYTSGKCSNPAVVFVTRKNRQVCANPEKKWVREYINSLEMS
Experimental: FIG. 9 is a graph showing the binding of ^125I-RANTES to TSP1. Increasing concentrations of soluble ^125I-labeled RANTES (0.01 μM -10.0 μM) were added to immobilized TSP1. Samples were incubated and bound ^125I-labeled RANTES measured by solid-binding radio-amino assay.
FIG. 10 is a graph showing the Hanes analysis of “^125-RANTES binding to immobilized TSP1. The Hanes analysis provides a measure of assessing the possibility of binding one or more factors to a given molecule.
as §1
In solid phase assays, ^125I-RANTES binded to immobilized TSP. […] Estimated stoichiometry at equilibrium was low (˜0.5 RANTES molecule for every 10 TSP monomer), although the steep slope of the second phase indicated a cooperative interaction (Hanes plot, FIG. 10). One interpretation of the data is that RANTES homodimerization is favored over binding to TSP. At a concentration that shifts equilibrium toward formation of the heterologous complex, positive cooperativity likely reflects a higher apparent affinity of RANTES monomers for binding to TSP, with an increase in monomers being a function of the odd number of sites presented by TSP homotrimers.

[7] = biological target: recombinant HIV-1 gp160 (gp120 non-covalently linked to gp41) (Human immunodeficiency virus type 1 group M subtype B, UniProt P03375)
Experimental: Increasing concentrations of soluble ^125I-labeled TSP1 (1 nM-μM) were added to immobilized recombinant HIV-1 gp160 for 3 hours at 22° C., and bound TSP1 measured after extensive washing. Non-linear curve fit was generated with Excell™ version 5.0. Apparent affinity was estimated from Scatchard analysis. (n=2; error calculated as standard deviation, SD).
A fixed concentration of ^125I-labeled TSP 1(50 nM) was added to immobilized rgp 160 in the absence or presence of 10-fold molar excess (0.5 μM) unlabeled TSP1, fusion protein LFP75-155 containing the LIMPII TSP binding domain (aa 75-155), or downstream fusion protein LFP 156-243. Samples were incubated, and bound TSP 1 was measured as in FIG. 2A. Plots represent single data sets of triplicate samples. (n=3, error as SD).
Briefly, TSP1 (5-10 μg/ml) or fusion proteins and peptides (10-20 μg/ml) were immobilized on detachable 96-well microtiter plate strips (Immulon-4 Remov-a-well, Dynatech Laboratories, Inc.), by overnight incubation at 4° C. in carbonate buffer (100 mM Na2CO3/1 mM MgCl2/0.02% NaN3, pH 9.8). Washed wells were blocked with 0.5% bovine serum albumin (“BSA”), then incubated in triplicate with soluble radiolabeled ligand for 2.5 hours at 37° C. After extensive washing in 50 mM Tris pH 7.5, 150 mM NaCl, 0.5% Tween-20 (TBS-Tween), bound radioactivity was quantified by gamma counter. Radiolabeling was performed with Na[^125I] […] Specific activity of Na[^125I] was determined for each experiment, ranging from 0.06-1.0 μCi/μg. Specific binding was determined as quenchable in the presence of excess unlabeled ligand, above background binding to BSA-coated wells.

[8] = biological target: T3, gp120 (LAI isolate) (Human immunodeficiency virus type 1 group M subtype B, UniProt P03377); format: binding, HIV-1
T3 construct: baculovirus-expressed HIV-1 gp120 derived from LAV and MN isolates; host or cells: baculovirus expression system
Experimental: Increasing concentrations of soluble ^125I-labeled recombinant gp120LAV (nM -1μM) were incubated with immobilized ligand for 2 hours at 37° C., and bound radioactivity measured as in FIGS. 2A and 2B. […] This plot represents a single data set of triplicate samples (72=2, errors as SD).
Briefly, TSP1 (5-10 μg/ml) or fusion proteins and peptides (10-20 μg/ml) were immobilized on detachable 96-well microtiter plate strips (Immulon-4 Remov-a-well, Dynatech Laboratories, Inc.), by overnight incubation at 4° C. in carbonate buffer (100 mM Na2CO3/1 mM MgCl2/0.02% NaN3, pH 9.8). Washed wells were blocked with 0.5% bovine serum albumin (“BSA”), then incubated in triplicate with soluble radiolabeled ligand for 2.5 hours at 37° C. After extensive washing in 50 mM Tris pH 7.5, 150 mM NaCl, 0.5% Tween-20 (TBS-Tween), bound radioactivity was quantified by gamma counter. […] Specific activity of Na[^125I] was determined for each experiment, ranging from 0.06-1.0 μCi/μg. Specific binding was determined as quenchable in the presence of excess unlabeled ligand, above background binding to BSA-coated wells.
The gp120 envelope protein was tested to determine whether it shared this same specificity.

Molecule: CC(C)[C@H](NC(=O)[C@H](CO)NC(=O)[C@@H](N)CS)C(=O)N[C@H](C(=O)N[C@@H](CS)C(=O)NCC(=O)O)[C@@H](C)O [CSVTCG, cys-ser-val-thr-cys-gly] (H-CSVTCG-OH; N-terminus and C-terminus assumed)
- inhibition of 125I-CD4 binding to immobilized gp120 [1]: 53±9%
- binding of 125I-CD4 to immobilized ligand (in words) [2]: binded directly

Molecule: thrombospondin-1 [TSP1]
- inhibition of 125I-CD4 binding to immobilized gp120 [1]: complete inhibition
- reduction of HIV-1 infection of PHA-activated donor PBMC (p24) ([3]; 2-10 μg/ml TSP1, pre-filtered): > 83%
- reduction of HIV-1 infectivity after brief exposure ([3]; 5 minutes exposure of TSP-virion mixture, 1 μg/ml TSP1): > 50%
- inhibition of HIV-1 IIIB infection, SK23 ([3]; SK23 CD4+ T-lymphoblastoid cell line): ≥ 90.7%
- inhibition of HIV-1 IIIB infection, U937 ([3]; U937 monocytoid cell line): ≥ 83.0%
- inhibition of HIV-1 on direct addition of TSP1 ([3]; no filtration, only with high concentration of TSP1 and low moi inoculum): 50-75%
- inhibition of HIV infectivity, strains p13 and HA593 [4]: ≥ 98±1%
- change in relative fluorescence intensity or percent CD4+ cells [5]: no change
- estimated stoichiometry at equilibrium [6]: ~0.5 RANTES molecule for every 10 TSP monomer
- Kd ([6]; saturatable, biphasic higher order kinetics, read-out: half maximal binding of 125I-RANTES to immobilized TSP): ~330 nM
- binding of 125I-CD4 to immobilized ligand (in words) [2]: concentration dependent saturatable manner
- inhibition of 125I-TSP1 binding to gp160 ([7]; 10-fold molar excess (0.5 μM) unlabeled competitor, 50 nM 125I-TSP1): 94±6%
- Kd ([7]; read-out: apparent affinity of TSP1 binding to immobilized recombinant gp160, soluble 125I-TSP1, Scatchard analysis): ~250 nM

Molecule: fibrinogen [reference compound]
- effect on HIV-1 infection of PBMC (in words) ([3]; same system as TSP1, pre-filtered): no effect

Molecule: VGSCCT [scrambled control peptide, reference compound]
- binding of 125I-gp120 to immobilized peptide (in words) [8]: inefficient binding
- inhibition of 125I-CD4 binding to immobilized gp120 [1]: enhanced binding

Molecule: GRGDS (GRGDA) [reference compound]
- binding of 125I-gp120 to immobilized peptide (in words) [8]: inefficient binding
- inhibition of 125I-CD4 binding to immobilized gp120 [1]: 4±4%
